In patent publication US20250002472A1, “PYRIDYL-CONTAINING COMPOUND” (CHIA TAI TIANQING PHARMACEUTICAL GROUP CO., LTD., priority 2021, published 2025):

Assays:
Mouse pharmacokinetics = type: in vivo; conditions: ICR, plasma, po, 3 mg/kg, mice, intragastric 3 mpk vs intravenous 1 mpk, read-out: Absolute bioavailability F (%)
Description: ICR mice weighing 18-22 g were randomized into groups of 9 mice per group after 3-5 days of acclimatization and then administered intragastrically at a dose of 3 mg/kg.
Plasma samples to be tested were prepared by taking blood from the orbit at time points of 15 min, 30 min, 1 h, 2 h, 4 h, 6 h, 8 h, 10 h, and 24 h.
20 μL of each plasma sample to be tested and a standard curve sample were taken, and an acetonitrile solution containing an internal standard was added. A supernatant was obtained by protein precipitation, diluted, and then assayed by LC/MS/MS.
Pharmacokinetic parameters were fitted using a non-compartmental model.

[1] = In vitro liver microsomal stability, mouse; type: in vitro ADME; conditions: mouse liver microsomes 0.5 mg/mL, NADPH, 37° C.
Description: (§1) Liver microsome incubation samples were prepared by mixing a PBS buffer (pH=7.4), a liver microsome solution (0.5 mg/mL), a test compound, and an NADPH+MgCl2 solution, and incubated at 37° C. and 300 rpm for 1 h. Zero-hour samples were prepared by mixing a PBS buffer (pH=7.4), a liver microsome solution (0.5 mg/mL), and a test compound. An acetonitrile solution containing an internal standard was added to the samples, and supernatants were prepared by protein precipitation, diluted, and then assayed by LC/MS/MS.

[2] = In vitro liver microsomal stability, human; type: in vitro ADME; conditions: human liver microsomes 0.5 mg/mL, NADPH, 37° C.
Description: as §1

[3] = system: OCI-LY10 human diffuse large B-cell lymphoma NOD-SCID mouse subcutaneous xenograft tumor; assay: Efficacy evaluation in OCI-LY10 NOD-SCID mouse subcutaneous xenograft tumor model; type: in vivo, NOD-SCID mice
Excerpt: Efficacy evaluation in OCI-LY10 human diffuse large B-cell lymphoma NOD-SCID mouse subcutaneous xenograft tumor model
(1) SPF female NOD-SCID mice (source: Jiangsu Huachuang Xinnuo Pharmaceutical Technology Co., Ltd.) were inoculated subcutaneously at the right side armpit with OCI-LY10 human diffuse large B-cell lymphoma cells at 1×10^7 cells/mouse. When the mean tumor volume reached about 200 mm^3, the animals were divided into a control group (vehicle control group) and treatment groups (compound groups).
The administration dose included 1 mg/kg, 2 mg/kg, and 4 mg/kg, and the administration frequency was once daily. The day of grouping was defined as day 0, and intragastric administration was started on day 0 for 21 consecutive days.
Alternatively, the administration dose was 4 mg/kg, and the administration frequency was 5 times per week. The day of grouping was defined as day 0, and intragastric administration was started on day 0 five times per week for two consecutive weeks.
The tumor volume was measured once every 3 days, and meanwhile, the mice were weighed and the data were recorded; the general behavior of the mice was observed and recorded every day. After the experiment was completed, the tumors were removed, weighed, and photographed.
The detection index and the calculation formula are as follows:
Tumor volume TV (mm^3)=½×(a×b^2), wherein a is the long diameter of the tumor, and b is the short diameter of the tumor; • Relative tumor volume RTV=TVt/TV0, wherein TV0 is the tumor volume on day 0, and TVt is the tumor volume at each measurement; • Relative tumor proliferation rate T/C (%)=(TRTV/CRTV)×100%, wherein TRTV is RTV of the treatment group, and CRTV is RTV of the vehicle control group; • Tumor growth inhibition rate TGI (%)=(1−TW/TW0)×100%; wherein TW is the tumor weight of the treatment group, and TW0 is the tumor weight of the vehicle control group; • Weight change rate WCR (%)=(Wtt−Wt0)/Wt0×100%, wherein Wt0 is the body weight of the mouse on day 0, and Wtt is the body weight of the mouse at each measurement.

Mouse liver microsome Residuals at 60 min (%) [1] [%]	Human liver microsome Residuals at 60 min (%) [2] [%]	also measured	Compound
–	–	bioavailability (Mouse pharmacokinetics): 104%	NC(=O)/C(=C/n1cnc(-c2cc(C(F)(F)F)nc(C(F)(F)F)c2)n1)c1cnc(NCC(F)F)nc1 [Compound 2]
–	–	bioavailability (Mouse pharmacokinetics): 114%	CC(F)(F)CNc1ncc(/C(=C\n2cnc(-c3cc(C(F)(F)F)nc(C(F)(F)F)c3)n2)C(N)=O)cn1 [Compound 3]
93.27	100.33	–	NC(=O)/C(=C/n1cnc(-c2cc(C(F)(F)F)nc(C(F)(F)F)c2)n1)c1cnc(NCC(F)(F)F)nc1 [Compound 4]
99.03	97.64	–	C[C@@H](Nc1ncc(/C(=C\n2cnc(-c3cc(C(F)(F)F)nc(C(F)(F)F)c3)n2)C(N)=O)cn1)C(F)(F)F [Compound 5]
98.98	101.7	–	NC(=O)/C(=C/n1cnc(-c2cc(C(F)(F)F)nc(C(F)(F)F)c2)n1)c1cncc(F)c1 [Compound 8]
93.99	95.75	–	N#Cc1cncc(/C(=C\n2cnc(-c3cc(C(F)(F)F)nc(C(F)(F)F)c3)n2)C(N)=O)c1 [Compound 10]
–	–	Weight change rate (%) (mean ± SD) ([3]; Table 5, 4 mg/kg intragastric, Day 18 of assay): 0.6 ± 8.1%	NC(=O)/C(=C/n1cnc(-c2cc(C(F)(F)F)nc(C(F)(F)F)c2)n1)c1cnc2ccccc2c1 [Compound 11]
91.15	93.23	–	NC(=O)/C(=C/n1cnc(-c2cc(C3CC3)nc(C(F)(F)F)c2)n1)c1cncnc1 [Compound 13]
83.14	80.48	–	NC(=O)/C(=C/n1cnc(-c2cc(C3CC3)nc(C(F)(F)F)c2)n1)c1cnc(NCC(F)F)nc1 [Compound 14]
–	–	bioavailability (Mouse pharmacokinetics): 94.8%	CC(F)(F)CNc1ncc(/C(=C\n2cnc(-c3cc(C4CC4)nc(C(F)(F)F)c3)n2)C(N)=O)cn1 [Compound 15]
90.60	88.75	–	NC(=O)/C(=C/n1cnc(-c2cc(C3CC3)nc(C(F)(F)F)c2)n1)c1cnc(NCC(F)(F)F)nc1 [Compound 16]
95.11	93.92	–	C[C@@H](Nc1ncc(/C(=C\n2cnc(-c3cc(C4CC4)nc(C(F)(F)F)c3)n2)C(N)=O)cn1)C(F)(F)F [Compound 17]
–	–	bioavailability (Mouse pharmacokinetics): 97.3%; Weight change rate (%) (mean ± SD) ([3]; Table 4, 2 mg/kg intragastric, Day 21 of assay): −2.0 ± 6.5%	Cc1ccc(/C(=C\n2cnc(-c3cc(C(F)(F)F)nc(C(F)(F)F)c3)n2)C(N)=O)cn1 [Compound 21]
–	–	Weight change rate (%) (mean ± SD) ([3]; Table 4, 4 mg/kg intragastric, Day 21 of assay): 1.7 ± 5.3%	NC(=O)/C(=C/n1cnc(-c2cc(C(F)(F)F)nc(C(F)(F)F)c2)n1)c1cnc2cccnc2c1 [Compound 25]
90.27	96.64	–	NC(=O)/C(=C/n1cnc(-c2cc(C3CC3)nc(C(F)(F)F)c2)n1)c1cnc2ccccc2c1 [Compound 26]
94.24	102.54	–	NC(=O)/C(=C/n1cnc(-c2cc(C3CC3)nc(C(F)(F)F)c2)n1)c1cncc(F)c1 [Compound 27]
89.94	98.75	–	N#Cc1cncc(/C(=C\n2cnc(-c3cc(C4CC4)nc(C(F)(F)F)c3)n2)C(N)=O)c1 [Compound 30]
95.08	100.32	–	NC(=O)/C(=C/n1cnc(-c2cc(C3CC3)nc(C(F)(F)F)c2)n1)c1cccnc1F [Compound 32]
98.21	104.79	–	NC(=O)/C(=C/n1cnc(-c2cc(C3CC3)nc(C(F)(F)F)c2)n1)c1cnc2cccnc2c1 [Compound 33]
87.79	101.21	–	COc1ccc(/C(=C\n2cnc(-c3cc(C4CC4)nc(C(F)(F)F)c3)n2)C(N)=O)cn1 [Compound 34]
–	–	bioavailability (Mouse pharmacokinetics): 112%	Cc1ccc(/C(=C\n2cnc(-c3cc(C4CC4)nc(C(F)(F)F)c3)n2)C(N)=O)cn1 [Compound 38]
89.18	106.91	–	NC(=O)/C(=C/n1cnc(-c2cc(C3CC3)nc(C(F)(F)F)c2)n1)c1ccc(F)nc1 [Compound 39]
